Experimental data reported in US20230233569A1 (Revolution Medicines, Inc., priority 2020, published 2023).

What was measured:
KRAS G12V = KRAS G12V (Homo sapiens, UniProt P01116+P62937, G12V); experiment: Disruption of BRAF RBD interaction with Ras (FRET / MOA assay, with Cyclophilin A); format: biochemical; conditions: KRAS G12V; read-out: KRAS G12V FRET data IC50
In short: (§1)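 IC50 values reflect loss of K-Ras binding to BRAF RBD, read as a lowered TR-FRET ratio compared with DMSO, driven by compound-mediated K-Ras:Cyclophilin A complex formation. Compound top dose 30 μM final, 3-fold steps, 3 h incubation at 25 °C before a 1.5 h antibody step.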

NRAS G12C = NRAS G12C (Homo sapiens, UniProt P01111+P62937, G12C); experiment: as above; format: biochemical; conditions: NRAS G12C; read-out: NRAS G12C FRET data IC50
KRAS G12S = KRAS G12S (Homo sapiens, UniProt P01116+P62937, G12S); experiment: as above; format: biochemical; conditions: read-out: KRAS G12S FRET data, IC50
In short: as §1

KRAS G13C = KRAS G13C (Homo sapiens, UniProt P01116+P62937, G13C); experiment: as above; format: biochemical; conditions: read-out: KRAS G13C FRET data, IC50
In short: as §1

KRAS WT = KRAS WT (Homo sapiens, UniProt P01116+P62937); experiment: as above; format: biochemical; conditions: KRAS WT; read-out: KRAS WT FRET data IC50
In short: as §1

KRAS G12C = KRAS G12C (Homo sapiens, UniProt P01116+P62937, G12C); experiment: as above; format: biochemical; conditions: read-out: KRAS G12C FRET data, IC50
In short: as §1

KRAS G13D = KRAS G13D (Homo sapiens, UniProt P01116+P62937, G13D); experiment: as above; format: biochemical; conditions: KRAS G13D; read-out: KRAS G13D FRET data IC50
In short: as §1

KRAS G12D = KRAS G12D (Homo sapiens, UniProt P01116+P62937, G12D); experiment: as above; format: biochemical; conditions: read-out: KRAS G12D FRET data, IC50
In short: as §1

KRAS Q61H = KRAS Q61H (Homo sapiens, UniProt P01116+P62937, Q61H); experiment: as above; format: biochemical; conditions: KRAS Q61H; read-out: KRAS Q61H FRET data IC50
In short: (§2)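 TR-FRET in 25 mM HEPES pH 7.3, 100 mM NaCl, 5 mM MgCl2, 0.1% BSA: 25 μM Cyclophilin A, 12.5 nM His6-Ras-GMPPNP, 50 nM GST-BRAF RBD with compound (10-point 3-fold series from 30 μM), 3 h at 25° C. Anti-His Eu/anti-GST APC added, 1.5 h more; IC50 from decreased FRET ratio versus DMSO.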

NRAS WT = NRAS WT (Homo sapiens, UniProt P01111+P62937); experiment: as above; format: biochemical; conditions: NRAS WT; read-out: NRAS WT FRET data IC50
In short: as §2

NRAS Q61K = NRAS Q61K (Homo sapiens, UniProt P01111+P62937, Q61K); experiment: as above; format: biochemical; conditions: NRAS Q61K; read-out: NRAS Q61K FRET data IC50
In short: as §2

NRAS Q61R = NRAS Q61R (Homo sapiens, UniProt P01111+P62937, Q61R); experiment: as above; format: biochemical; conditions: NRAS Q61R; read-out: NRAS Q61R FRET data IC50
In short: as §2

Capan-1 (K-Ras G12V) = experiment: CellTiter-Glo cell viability assay, 5-day treatment; format: cell-based; conditions: Homo sapiens, CAPAN-1, 120 h, 5-day treatment; read-out: Capan-1 Cell Viability assay data (K-Ras G12V, IC50)
In short: (§3)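 Five-day compound treatment of plated cells; luminescent read after ~30 min at RT. Percent-of-DMSO data fit to a four-parameter logistic model.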

NCI-H358 (K-Ras G12C) = experiment: as above; format: cell-based; conditions: Homo sapiens, NCI-H358, 120 h, 5-day treatment; read-out: H358 Cell Viability assay data (K-Ras G12C, IC50)
In short: as §3

Chain of KRAS G12S (P01116 1-169 isoform P01116-2 G12S limits assumed): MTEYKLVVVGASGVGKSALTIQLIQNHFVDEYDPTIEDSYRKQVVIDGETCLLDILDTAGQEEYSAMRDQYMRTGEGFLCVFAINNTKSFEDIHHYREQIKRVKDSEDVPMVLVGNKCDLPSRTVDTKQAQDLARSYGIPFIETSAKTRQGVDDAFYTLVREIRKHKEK
Chain of KRAS G12S (P62937 whole entry): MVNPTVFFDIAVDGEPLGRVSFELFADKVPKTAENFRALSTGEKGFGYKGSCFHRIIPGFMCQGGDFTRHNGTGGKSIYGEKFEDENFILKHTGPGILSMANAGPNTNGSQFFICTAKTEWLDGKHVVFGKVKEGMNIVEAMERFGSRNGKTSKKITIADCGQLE
Chain of NRAS G12C (P01111 whole entry G12C): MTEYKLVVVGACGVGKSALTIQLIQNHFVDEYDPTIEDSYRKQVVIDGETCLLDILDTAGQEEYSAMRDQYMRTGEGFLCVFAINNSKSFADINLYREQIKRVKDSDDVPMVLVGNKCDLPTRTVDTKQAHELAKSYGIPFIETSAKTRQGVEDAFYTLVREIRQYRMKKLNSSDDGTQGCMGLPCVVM
Chain of NRAS G12C (P62937 whole entry): as the sequence (P62937 whole entry) above
Chain of KRAS G12C (P01116 1-169 isoform P01116-2 G12C): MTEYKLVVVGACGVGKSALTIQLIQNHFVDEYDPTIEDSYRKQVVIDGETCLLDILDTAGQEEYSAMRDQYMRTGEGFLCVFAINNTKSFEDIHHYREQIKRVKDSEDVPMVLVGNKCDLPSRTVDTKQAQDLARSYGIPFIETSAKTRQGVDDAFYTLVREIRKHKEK
Chain of KRAS G12C (P62937 whole entry): as the sequence (P62937 whole entry) above
Chain of NRAS WT (P01111 whole entry): as the sequence (P01111 whole entry G12C) above, with C12G counted along it
Chain of NRAS WT (P62937 whole entry): as the sequence (P62937 whole entry) above
Chain of KRAS G12V (P01116 1-169 isoform P01116-2 G12V limits assumed): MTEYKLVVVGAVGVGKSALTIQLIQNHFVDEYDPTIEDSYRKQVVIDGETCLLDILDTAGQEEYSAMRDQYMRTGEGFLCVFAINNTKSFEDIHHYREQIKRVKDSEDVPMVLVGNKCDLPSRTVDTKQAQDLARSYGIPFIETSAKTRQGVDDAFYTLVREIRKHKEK
Chain of KRAS G12V (P62937 whole entry): as the sequence (P62937 whole entry) above
Chain of KRAS Q61H (P01116 1-169 isoform P01116-2 Q61H limits assumed): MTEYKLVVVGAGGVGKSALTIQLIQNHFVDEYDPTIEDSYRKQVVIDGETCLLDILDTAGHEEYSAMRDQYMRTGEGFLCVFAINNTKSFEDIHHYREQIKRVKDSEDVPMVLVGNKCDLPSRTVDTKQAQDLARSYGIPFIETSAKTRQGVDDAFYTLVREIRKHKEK
Chain of KRAS Q61H (P62937 whole entry): as the sequence (P62937 whole entry) above
Chain of NRAS Q61R (P01111 whole entry Q61R): as the sequence (P01111 whole entry G12C) above, with C12G, Q61R counted along it
Chain of NRAS Q61R (P62937 whole entry): as the sequence (P62937 whole entry) above
Chain of NRAS Q61K (P01111 whole entry Q61K): as the sequence (P01111 whole entry G12C) above, with C12G, Q61K counted along it
Chain of NRAS Q61K (P62937 whole entry): as the sequence (P62937 whole entry) above
Chain of KRAS G12D (P01116 1-169 isoform P01116-2 G12D limits assumed): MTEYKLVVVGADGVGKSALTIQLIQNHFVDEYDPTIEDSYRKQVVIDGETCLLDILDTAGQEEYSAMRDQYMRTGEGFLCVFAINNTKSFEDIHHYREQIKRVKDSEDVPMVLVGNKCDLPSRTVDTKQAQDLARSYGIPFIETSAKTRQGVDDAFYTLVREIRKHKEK
Chain of KRAS G12D (P62937 whole entry): as the sequence (P62937 whole entry) above
Chain of KRAS G13C (P01116 1-169 isoform P01116-2 G13C): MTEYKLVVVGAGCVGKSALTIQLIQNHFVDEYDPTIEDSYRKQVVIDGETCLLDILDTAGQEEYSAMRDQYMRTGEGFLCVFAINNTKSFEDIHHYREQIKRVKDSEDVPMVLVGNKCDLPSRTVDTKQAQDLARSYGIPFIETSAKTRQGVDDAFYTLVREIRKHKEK
Chain of KRAS G13C (P62937 whole entry): as the sequence (P62937 whole entry) above
Chain of KRAS WT (P01116 1-169 isoform P01116-2 limits assumed): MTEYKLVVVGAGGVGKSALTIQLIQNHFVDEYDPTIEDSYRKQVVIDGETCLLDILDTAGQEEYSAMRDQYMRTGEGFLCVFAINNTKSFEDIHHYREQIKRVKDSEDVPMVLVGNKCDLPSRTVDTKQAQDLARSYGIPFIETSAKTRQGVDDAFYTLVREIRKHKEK
Chain of KRAS WT (P62937 whole entry): as the sequence (P62937 whole entry) above
Chain of KRAS G13D (P01116 1-169 isoform P01116-2 G13D limits assumed): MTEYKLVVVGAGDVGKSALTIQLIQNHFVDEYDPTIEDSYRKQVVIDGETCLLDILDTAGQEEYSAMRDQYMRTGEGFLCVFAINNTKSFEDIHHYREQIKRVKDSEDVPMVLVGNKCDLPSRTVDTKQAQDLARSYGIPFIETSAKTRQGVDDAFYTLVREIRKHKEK
Chain of KRAS G13D (P62937 whole entry): as the sequence (P62937 whole entry) above

SMILES	IC50 (KRAS G12V) [µM]	IC50 (NRAS G12C) [µM]	IC50 (KRAS G12S) [µM]	IC50 (KRAS G13C) [µM]	IC50 (KRAS WT) [µM]	IC50 (KRAS G12C) [µM]	IC50 (KRAS G13D) [µM]	IC50 (KRAS G12D) [µM]	IC50 (KRAS Q61H) [µM]	IC50 (NRAS WT) [µM]	IC50 (NRAS Q61K) [µM]	IC50 (NRAS Q61R) [µM]	IC50 (NCI-H358 (K-Ras G12C)) [µM]	IC50 (Capan-1 (K-Ras G12V)) [µM]
CCn1c(-c2cccnc2[C@H](C)OC)c2c3cc(ccc31)-c1cc(O)cc(c1)C[C@H](NC(=O)[C@H](C(C)C)N(C)C(=O)C1Cc3cccnc3C1)C(=O)N1CCC[C@H](N1)C(=O)OCC(C)(C)C2 (stereo partly drawn) [Example A250]	0.01 to 0.1	0.01 to 0.1	0.01 to 0.1	0.01 to 0.1	0.1 to 1	0.01 to 0.1	0.1 to 1	0.1 to 1	0.01 to 0.1	0.01 to 0.1	0.1 to 1	0.1 to 1	0.01 to 0.1	0.01 to 0.1
CCn1c(-c2cccnc2[C@H](C)OC)c2c3cc(ccc31)-c1csc(n1)C[C@H](NC(=O)[C@H](C(C)C)N(C)C(=O)N1C[C@H]3OCCN(C)[C@H]3C1)C(=O)N1CCC[C@H](N1)C(=O)OCC(C)(C)C2 (atropisomer, axis not shown) [Example A451]	0.1 to 1	0.1 to 1	0.1 to 1	0.1 to 1	0.1 to 1	0.1 to 1	1 to 10	1 to 10	0.1 to 1	0.1 to 1	0.01 to 0.1	0.1 to 1	0.01 to 0.1	0.01 to 0.1
CCn1c(-c2cccnc2[C@H](C)OC)c2c3cc(ccc31)-c1csc(n1)C[C@H](NC(=O)[C@H](C(C)C)N(C)C(=O)N1CC[C@@H]1C(=O)NC)C(=O)N1CCC[C@H](N1)C(=O)OCC(C)(C)C2 [Example A281]	1 to 10	1 to 10	1 to 10	1 to 10	1 to 10	1 to 10	1 to 10	> 10	0.1 to 1	1 to 10	0.1 to 1	1 to 10	0.1 to 1	0.1 to 1

Continued, in another order:

IC50 (KRAS G12V) [µM]	IC50 (NRAS G12C) [µM]	IC50 (KRAS G12S) [µM]	IC50 (KRAS G13C) [µM]	IC50 (KRAS WT) [µM]	IC50 (KRAS G12C) [µM]	IC50 (KRAS G13D) [µM]	IC50 (KRAS G12D) [µM]	IC50 (KRAS Q61H) [µM]	IC50 (NRAS WT) [µM]	IC50 (NRAS Q61K) [µM]	IC50 (NRAS Q61R) [µM]	IC50 (NCI-H358 (K-Ras G12C)) [µM]	SMILES	IC50 (Capan-1 (K-Ras G12V)) [µM]
1 to 10	0.1 to 1	1 to 10	1 to 10	0.1 to 1	0.1 to 1	1 to 10	1 to 10	0.1 to 1	1 to 10	0.1 to 1	0.1 to 1	0.1 to 1	CCn1c(-c2cccnc2[C@H](C)OC)c2c3cc(ccc31)-c1csc(n1)C[C@H](NC(=O)[C@H](C(C)C)N(C)C(=O)N1CC[C@]3(CCN(C)C3=O)C1)C(=O)N1CCC[C@H](N1)C(=O)OCC(C)(C)C2 (single isomer, unassigned) [Example A461]	0.1 to 1
0.1 to 1	0.1 to 1	0.1 to 1	0.1 to 1	0.1 to 1	0.1 to 1	0.1 to 1	1 to 10	0.1 to 1	0.1 to 1	0.01 to 0.1	0.1 to 1	0.01 to 0.1	CCn1c(-c2cccnc2[C@H](C)OC)c2c3cc(ccc31)-c1csc(n1)C[C@H](NC(=O)[C@H](C(C)C)N(C)C(=O)N1CC(NC)C1)C(=O)N1CCC[C@H](N1)C(=O)OCC(C)(C)C2 (atropisomer, axis not shown) [Example A337]	0.1 to 1
0.01 to 0.1	0.01 to 0.1	0.01 to 0.1	0.01 to 0.1	0.01 to 0.1	0.01 to 0.1	0.01 to 0.1	0.1 to 1	0.01 to 0.1	0.01 to 0.1	0.01 to 0.1	0.01 to 0.1	< 0.01	CCn1c(-c2cc(N3CCN(C)CC3)cnc2[C@H](C)OC)c2c3cc(ccc31)-c1csc(n1)C[C@H](NC(=O)[C@H](C1CCCC1)N(C)C(=O)N1CCC1)C(=O)N1CCC[C@H](N1)C(=O)OCC(C)(C)C2 (atropisomer, axis not shown) [Example A529]	< 0.01
